In PubChem BioAssay (NCI):
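Compound exposure: 48 hours, 5 concentrations, 96-well plates. The concentration for 50% growth inhibition is given as GI50. The concentration for full growth arrest is given as TGI.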 Where a SMILES comes first, the peptide text is derived from it. The star is where a group is joined. Fmoc = O=C(OCC1c2ccccc2-c2ccccc21)*; OBn = c1ccc(CO*)cc1; tBu = CC(C)(C)*

Experiments:
Test in all cases: growth of human tumour cells (NCI), 48 h
BT-549 breast = test system: BT-549 breast
HCT-116 colon = test system: HCT-116 colon
KM12 colon = test system: KM12 colon
PC-3 prostate = test system: PC-3 prostate
SK-MEL-2 melanoma = test system: SK-MEL-2 melanoma
T-47D breast = test system: T-47D breast
UO-31 renal = test system: UO-31 renal

| Structure (SMILES) | TGI (BT-549 breast) [µM] | TGI (HCT-116 colon) [µM] | TGI (KM12 colon) [µM] | TGI (PC-3 prostate) [µM] | TGI (SK-MEL-2 melanoma) [µM] | TGI (T-47D breast) [µM] | TGI (UO-31 renal) [µM] | GI50 (BT-549 breast) [µM] | GI50 (HCT-116 colon) [µM] | GI50 (KM12 colon) [µM] | GI50 (PC-3 prostate) [µM] | GI50 (SK-MEL-2 melanoma) [µM] | GI50 (T-47D breast) [µM] | GI50 (UO-31 renal) [µM] |
| --- | --- | --- | --- | --- | --- | --- | --- | --- | --- | --- | --- | --- | --- | --- |
| CCOc1ccc(Nc2nc(N)nc(N)c2N=O)cc1 | > 100 | > 100 | > 100 | > 100 | > 100 | > 100 | 83.3 |  |  |  |  |  |  |  |
| CN(CC(=O)O)c1ncc2c(n1)-c1ccccc1CC2 |  | > 100 | > 100 | > 100 | > 100 |  | > 100 |  |  |  |  |  |  |  |
| CCCCCCCC(=O)OC[n+]1cccc(-c2c(COC(=O)NC(C)C)c(COC(=O)NC(C)C)c3n2CCC3)c1 | > 100 | > 100 | > 100 | > 100 | > 100 | > 100 | > 100 |  |  |  |  |  |  |  |
| O=[N+]([O-])/C=C/c1cn(CCCCCCCCn2cc(/C=C/[N+](=O)[O-])c3ccccc32)c2ccccc12 |  | 0.396 | > 10 | > 10 | > 10 | > 10 | > 10 |  |  |  |  |  |  |  |
| COc1ccc(C=C2C(C)=NN(c3cccc(Cl)c3)C23C(Cl)C(=O)N3c2nc3ccccc3s2)cc1 (stereo not drawn) |  | 28.8 | 34.8 | 39.3 | 38.9 | > 100 | 33.4 |  |  |  |  |  |  |  |
| CC(C)(C)[C@H]1NC(=O)CN1C(=O)OCc1ccccc1 | > 100 | > 100 | > 100 | > 100 | > 100 | > 100 | > 100 |  |  |  |  |  |  |  |
| CC(OC(C)(C)C)C(NC(=O)OCC1c2ccccc2-c2ccccc21)C(=O)NC(Cc1ccccc1)C(=O)OCc1ccccc1 (stereo not drawn) (Fmoc-Thr(tBu)-Phe-OBn; configuration not given here) | > 100 | > 100 | > 100 | > 100 | > 100 | > 100 | > 100 |  |  |  |  |  |  |  |
| CCn1c(-c2cc3ccccc3cc2OC(C)=O)n[nH]c1=S |  | 41.7 | > 100 | 39.2 | 41.3 | 43.3 | > 100 |  |  |  |  |  |  |  |
| CCOC(=O)NC(Nc1ccc(C(=O)O)cc1)(C(F)(F)F)C(F)(F)F | > 100 | > 100 | > 100 | > 100 | > 100 | > 100 | > 100 |  |  |  |  |  |  |  |
| CCOC(=O)CC1(N)CC2c3ccccc3OC(=O)C2C(=O)N1 (stereo not drawn) | > 100 | > 100 | > 100 | > 100 | > 100 | > 100 | > 100 |  |  |  |  |  |  |  |
| COc1ccc(C2CC(c3cccc(Nc4ccncc4)c3)=NN2c2ccccc2)cc1 (stereo not drawn) | 20.6 | 3.29 | 3.5 | 3.38 | 5.01 | 5.83 | 2.92 | 4.94 | 1.68 | 1.79 | 1.68 | 2.39 | 2.3 | 1.41 |
| O=C(Nc1nnc(-c2ccccc2)o1)C(SC(=S)N1CCCC1)c1ccccc1 (stereo not drawn) | 90 | 79.5 | > 100 | > 100 | > 100 | > 100 | 57.8 |  |  |  |  |  |  |  |
| CCOC(=O)CCC(NC(=O)c1ccc(NCc2ccc3nc(OC)c(OC)nc3c2)c2ccccc12)C(=O)OCC (stereo not drawn) | > 100 | > 100 | > 100 | > 100 | > 100 | > 100 | > 100 |  |  |  |  |  |  |  |
| CC1CC[C@@]2(OC1)OC1C[C@H]3[C@@H]4CC=C5C[C@@H](OC6OC(CO)C(OC7OC(CO)C(O)C(O)C7O)C(O)C6OC6OC(C)C(O)C(O)C6O)CC[C@]5(C)[C@H]4CC[C@]3(C)C1[C@@H]2C (stereo partly drawn) | 0.848 | 2.31 | 1.22 | 0.93 | 3.2 | 1.21 | 0.887 |  |  |  |  |  |  |  |
| C[N+](C)([O-])C12CC3CC(CC(C3)C1)C2 | > 100 | 91.2 | > 100 | > 100 | > 100 | 85.7 | 80.6 |  |  |  |  |  |  |  |
| CC(CSc1nc2c(c(=N)n1-c1ccccc1)c(=S)n(-c1ccccc1)c(=S)n2-c1ccccc1)CN(C)C (stereo not drawn) | 3.52 | 3.07 | 5.6 | 3.38 | 5.29 |  |  |  |  |  |  |  |  |  |
| CCOC(=O)CSc1nc(-c2ccc(Cl)cc2)c(C#N)c(=O)[nH]1 | > 100 | > 100 | > 100 | > 100 | > 100 | > 100 | > 100 |  |  |  |  |  |  |  |
| COC(=O)c1sc2c(Cl)c(Cl)sc2c1Cl | > 100 | > 100 | > 100 | > 100 | > 100 | > 100 | > 100 |  |  |  |  |  |  |  |
| CC(=O)N1CN2C(=O)CCC2c2cc(C)ccc21 (stereo not drawn) |  | > 100 | > 100 | > 100 | > 100 | > 100 | > 100 |  |  |  |  |  |  |  |
| c1ccc(CN2CCC(CNc3ncnc4ccccc34)C2)cc1 (stereo not drawn) | > 100 | > 100 | > 100 | > 100 | > 100 | > 100 | > 100 |  |  |  |  |  |  |  |
| COc1ccc(Nc2nc(N)c(C(=O)c3ccco3)s2)cc1 | > 100 | > 66.4 | > 100 | > 100 | > 83.9 | > 100 | > 70.2 |  |  |  |  |  |  |  |
| CCOC(=O)c1c(-c2ccc(Cl)cc2)c(C#N)c(=S)n(C2OC(COC(C)=O)C(OC(C)=O)C(OC(C)=O)C2OC(C)=O)c1C (stereo not drawn) | > 100 | > 100 | > 100 | > 100 | > 66 | > 100 |  | > 100 |  |  |  |  |  |  |
| Cc1cc(C)n(C(C)(C(=O)Cc2ccccc2)n2nc(C)cc2C)n1 |  | > 100 | > 100 | > 100 | > 100 | > 100 | > 100 |  |  |  |  |  |  |  |
| Nc1ccc2c3c1cccc3c(=O)n1c3ccc(Cc4ccc5c(c4)nc4c6ccc(N)c7cccc(c(=O)n54)c76)cc3nc21 | > 100 | > 100 | > 100 | > 100 | > 100 |  | > 100 |  |  |  |  |  |  |  |
| O=c1ccc(=O)c2c1c1[nH]c3ccccc3c1c1c(=O)c3ccccc3c(=O)c21 |  | > 10 | > 10 | > 10 | > 10 | > 10 | > 10 |  |  |  |  |  |  |  |
| CC1OC23CCCCC2C(C#N)(C#N)C1(C#N)C(=N)O3 (stereo not drawn) | 34.4 | 36.2 | 61.1 | 69.2 | 43.5 | 53.6 |  |  |  |  |  |  |  |  |
| COC(=O)c1c2c(cc3c1CC1(Cc4cc5c(cc4C1)CCCC5)C3)CCCC2 |  | 28.6 | > 100 | > 100 | > 100 | > 100 | > 100 |  |  |  |  |  |  |  |
